Data set [1] has as its system spleen T cells. The data set is described as follows: T cell proliferation inhibition (CFSE, FACS), CD3/CD28-activated spleen T cells. It is filed as cell-based, C57BL/6 mice. In short, it runs like this:
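CFSE-labelled splenic T cells (CD90.2-isolated, 7-week C57BL/6 mice), 2×10^5/well, activated with anti-CD3/CD28 (0.5 μg/mL each) plus compound at 10, 30 or 50 μM in triplicate for 3 days at 37 °C. CFSE dilution by flow cytometry; inhibition % relative to CD3/CD28+DMSO proliferation.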

Data set [2] relates to T lymphocyte cell line Jurkat E6-1. The data set is described as follows: Cytotoxicity experiment (CCK-8, relative cell survival). Particulars: 24 hours, untreated cells = 100%. It is filed as cell-based. In short, it runs like this:
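Jurkat cells in RPMI-1640 with 10% FBS were exposed to compounds at several concentrations for 24 h at 37 °C, 5% CO2. CCK-8 added for 2 h, absorbance read at 450 nm; survival expressed relative to untreated cells (100%).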

Molecules are shown by their SMILES.

With `CCCCCCCCCCCCNC(=O)c1cccnc1N` [Compound 69], the inhibition at 10 µM in data set [1] (Mus musculus, T-cell, 72 h, Table 2, 10 μM, 3 days, relative to CD3/CD28+DMSO, read-out: Proliferation inhibition rate (%)) was determined as 99%. The inhibition at 30 µM in data set [1] (Mus musculus, T-cell, 72 h, Table 2, 30 μM, 3 days, relative to CD3/CD28+DMSO, read-out: Proliferation inhibition rate (%)) amounted to 100%. Also, the inhibition at 50 µM in data set [1] (Mus musculus, T-cell, 72 h, Table 2, 50 μM, 3 days, relative to CD3/CD28+DMSO, read-out: Proliferation inhibition rate (%)) stood at 100%. In addition, in data set [1] (concentrations ranging from 10 to 30 μM), the “cell proliferation read by FACS (FIG. 2)” value is listed as “inhibition of cell proliferation”. Moreover, the “Relative cell survival rate (%)” value in data set [2] (10 μM) amounted to 95%; in data set [2] (20 μM), 94%; in data set [2] (30 μM), 88%; in data set [2] (50 μM), 84%.

Values taken from patent US20250296909A1, “NOVEL BENZENE DERIVATIVE AND IMMUNOSUPPRESSION-RELATED USE THEREOF” (PROVIBIO CO., LTD., priority 2021, published 2025).
